Experimental data published in patent US3979508A, “Compositions and methods therewith for penicillin hypersensitivity detection” (Kremers-Urban Company, priority 1975, dated 1976).

Test system: penicillin hypersensitivity (patients)
Test: Skin tests for penicillin hypersensitivity: monostereoisomeric penicilloyl-poly-L-lysine vs mixture of stereoisomers (Table II)
Format: in vivo, human
Description: One of the uses for the conjugates of this invention is in skin testing for penicillin hypersensitivity. The conjugated compositions are prepared for skin testing by first dissolving the composition in buffered isotonic solutions, having a pH in the range from 7 to 8. For example, the conjugates prepared above may be diluted with aqueous solutions 0.15 M NaCl in 0.01 M phosphate, pH 7.6. In addition, other physiological salt solutions may be used.
Intradermal injections may be made of the foregoing solutions with a 26 guage needle, the volume injected may be generally about 0.01 to 0.03 cc. Alternatively, the conjugate may be applied by the scratch test technique. The development of a wheal at the injection site after about 20 minutes indicates a positive reaction, and penicillin hypersensitivity.
Penicillin hypersensitivity tests carried out with the conjugate compositions of this invention reflect the numerous advantages of penicillin hypersensitivity determinations made with such compositions. […] In Table II the distribution of skin reactions is shown by history of penicillin therapy and hypersensitivity. […] (See column 2, for example, showing the percentages of patients tested who had […] skin test.)

[1] = GROUP I: claimed prior history of non-sensitivity and previous penicillin treatments
[2] = GROUP II: claimed prior history of sensitivity and previous penicillin treatments
[3] = GROUP III: no prior history of sensitivity and no previous penicillin treatments

**Q.** What does the source list for penicilloyl-poly-L-lysine [PPL]?
**A.** NEGATIVE SKIN TESTS % [1]: 91.5%; NEGATIVE SKIN TESTS No. [1]: 4223; NEITHER NEGATIVE NOR POSITIVE SKIN TESTS % [1]: 0.7%; NEITHER NEGATIVE NOR POSITIVE SKIN TESTS No. [1]: 36; POSITIVE SKIN TESTS % [1]: 7.8%; POSITIVE SKIN TESTS No. [1]: 358; NEGATIVE SKIN TESTS % [2]: 77.7%; NEGATIVE SKIN TESTS No. [2]: 143; NEITHER NEGATIVE NOR POSITIVE SKIN TESTS % [2]: nil; NEITHER NEGATIVE NOR POSITIVE SKIN TESTS No. [2]: nil; POSITIVE SKIN TESTS % [2]: 22.3%; POSITIVE SKIN TESTS No. [2]: 41; NEGATIVE SKIN TESTS % [3]: 96.5%; NEGATIVE SKIN TESTS No. [3]: 637; NEITHER NEGATIVE NOR POSITIVE SKIN TESTS % [3]: 0.2%; NEITHER NEGATIVE NOR POSITIVE SKIN TESTS No. [3]: 1; POSITIVE SKIN TESTS % [3]: 3.3%; POSITIVE SKIN TESTS No. [3]: 22; NEGATIVE SKIN TESTS % (TOTALS, all groups): 91.6%; NEGATIVE SKIN TESTS No. (TOTALS, all groups): 5003; NEITHER NEGATIVE NOR POSITIVE SKIN TESTS % (TOTALS, all groups): 0.7%; NEITHER NEGATIVE NOR POSITIVE SKIN TESTS No. (TOTALS, all groups): 37; POSITIVE SKIN TESTS % (TOTALS, all groups): 7.7%; POSITIVE SKIN TESTS No. (TOTALS, all groups): 421
